Data taken from US7148020B2, “Triple polypeptide complexes” (Arexis AB, priority 2001, dated 2006).
Ends that are not written are not given here.

Key:
C1 mAb and M2.139 mAb = assay: Immunoreactivity of conformation dependent monoclonal antibodies on coated microtiter wells; assay type: binding, mouse; conditions: compared with native CII (FIG. 8)
Description: Microtiter plates (Nunc, Wiesbaden, Germany) were coated overnight with [(Gly-Pro-Hyp)5-CII(358-366Hyp-369)-(Gly-Pro-Hyp)2]3LAhx or [(Gly-Pro-Hyp)5-CII(551-552Hyp-564)-(Gly-Pro-Hyp)2]3LAhx at 4° C. and blocked with 2% BSA in phosphate buffered saline (PBS, pH 7.4) for one hour. The presentation of a native collagen conformation on the plastic surface of the microtiter well was controlled by the immunoreactivity of two mouse monoclonal antibodies (C1 mAb having specificity for the CII(358-369) region and M2.139 mAb having specificity for the CII(551-564) region) that recognize the CII epitopes in a conformation dependent manner as confirmed in FIG. 8. Identical titration curves for the native CII and the synthetic polypeptides indicate that the synthetic polypeptides have a perfect image of the conformational epitope. […] Heat denaturation was achieved by heating the CII polypeptide to greater than 50° C. for two hours prior to the coating of the microtiter wells.

HCQ.10 hybridoma = assay: Detection of transgenic CII from skin grafts by T cell hybridoma, CTLL assay; assay type: cell-based, mice; conditions: HCQ.10, specific for glycosylated CII(256-270)
Description: (§1) T cell hybridomas HCQ.4 and HCQ.10, specific for CII(256-270) without posttranslational modification and with glucose on hydroxylysin at position K264 respectively, were used to detect transgenic […] prepared from TSC or recipients grafts at the end of arthritis experiments as described earlier (Michaelsson et al., J. Exp. Med., 180:745–749 (1994) and Corthay et al., Eur. J. Immunol., 28:2580–2590 (1998)). Briefly, syngeneic spleen cells were incubated with titrated amount of antigen at 5×10^5/mL together with the hybridoma cells at 5×10^4/mL. The interleukin-2 production was detected after 24 hours by transferring 100 μL of the supernatant to new plates. Plates were snap-frozen to avoid any contamination of living cells before addition of 10^4 CTLL/well. CTLL were incubated for 24 hours before thymidine-labeling and harvesting 15–18 hours later.

HCQ.4 hybridoma = assay: as above; assay type: cell-based, mice; conditions: HCQ.4, specific for non-glycosylated CII(256-270)
Description: as §1

[1] = test system: CII(256-270)/Aq-specific T cell hybridoma cells; assay: Antigen presentation, IL-2 production of T cell hybridoma measured by ELISA; assay type: cell-based, mice
Description: Antigen-presentation of polypeptides and triple helical polypeptide complexes was studied using A^q-restricted HDQ.9, A^q-restricted HRC.2, A^q-restricted HCQ.4, and DR4-restricted 1259 T cell hybridomas. Briefly, A^q-restricted spleen cells were derived from DBA/1 mice, and DR4-restricted spleen cells were derived from DR4^+/_H-2^−/_mice. T cell hybridoma cells (5×10^4 cells/well) were incubated with polypeptides and polypeptide complexes (20 μg/mL, dilution 1:5) and 5×10^5 spleen cells per well (normal or fixed in 1% paraformaldehyde for 15 min at room temperature) in a volume of 200 μL in 96-well plates for 24 hours. The reactivity of the hybridoma cells toward the polypeptides and triple helical polypeptide complexes, reflected by IL-2 production, was measured by ELISA using europium-labeled streptavidin (WALLAC, Turku).

[2] = test system: C3H.Q mice, arthritis induced with rat CII; assay: Vaccination of adult mice, arthritis induced with rat CII; assay type: in vivo
Description: Male and female C3H.Q mice were used in two separate experiments. In each experiment, adult mice 8–12 weeks old were injected intradermally at the base of the tail with CII(256-270) (unlinked polypeptides), [(Gly-Pro-Hyp)5-CII(259-274)-(Gly-Pro-Hyp)2]3LAhx (linked polypeptides), or PBS. Specifically, each mouse received 100 μL of PBS or 100 μL of polypeptide (100 μg) emulsified in incomplete Freund's adjuvant.
After three weeks, the mice were treated with rat CII emulsified in complete Freund's adjuvant. Specifically, each mouse received 100 μL containing 100 μg of rat CII injected intradermally around the base of the tail. […] In addition, five weeks after treating the mice with rat CII, blood samples were collected to determine the antibody response.

[3] = test system: HCQ.4 T cell hybridoma cells; assay: T cell hybridoma stimulation with Langerhans cells, IL-2 by CTLL assay; assay type: cell-based, mice; conditions: 10 μg/mL, Langerhans cells as antigen presenting cells, 24 hours (FIG. 3)
Description: Langerhans cells (dendritic cells) were prepared from ear skin of B10Q×DBA/1 mice and purified with selection on N418 marker. Once purified, Langerhans cells were mixed with HCQ.4 T cell hybridoma cells (1×10^5 cell/well), and the mixture incubated with media containing 10 μg/mL of [(Gly-Pro-Hyp)5-CII(259-274)-(Gly-Pro-Hyp)2]3LAhx (a linked polypeptide), CII(259-270) (an unlinked polypeptide), or native rat CII for 24 hours. After the 24-hour incubation, 0.5 μCi ^3H-thymidine/well (Radiochemical Centre, Amersham,UK) was added, and the cells incubated for an additional 18 hours. After this incubation, the supernatants were assayed for IL-2 content using a CTLL assay. Results were presented as means of duplicates.

CD4+ T cells = assay: IL-2 response of CD4+ T cells upon in vitro stimulation, two-color flow cytometry; assay type: cell-based, human; conditions: 10 μg per mL plus anti-CD28
[4] = test system: monoclonal anti-CII antibody 122.9; assay: ELISA, coated polypeptide complexes capture anti-CII monoclonal antibody; assay type: binding; conditions: monoclonal antibody 122.9, Rat; coated wells
Source text: (§2) Triple helical polypeptide complexes [(Gly-Pro-Hyp)5-CII(358-366Hyp-369)-(Gly-Pro-Hyp)2]3LAhx, [(Gly-Pro-Hyp)5-CII(259-273Hyp-274)-(Gly-Pro-Hyp)2]3LAhx, [(Gly-Pro-Hyp)5-CII(259-273Hyp-274)-CII(359-366Hyp)-(Gly-Pro-Hyp)2]3LAhx, [(Gly-Pro-Hyp)5-CII(494-504Hyp)-(Gly-Pro-Hyp)2]3LAhx, and [(Gly-Pro-Hyp)5-CII(551-552Hyp-564)-(Gly-Pro-Hyp)2]3LAhx were used in an ELISA to detect anti-CII-antibodies. Specifically, Immulon2 HB (Dynex/Technologies Inc., USA) plates were coated with [(Gly-Pro-Hyp)5-CII(358-366Hyp-369)-(Gly-Pro-Hyp)2]3LAhx, [(Gly-Pro-Hyp)5-CII(259-273Hyp-274)-(Gly-Pro-Hyp)2]3LAhx, [(Gly-Pro-Hyp)5-CII(259-273Hyp-274)-CII(359-366Hyp)-(Gly-Pro-Hyp)2]3LAhx, [(Gly-Pro-Hyp)5-CII(494-504Hyp)-(Gly-Pro-Hyp)2]3LAhx, and [(Gly-Pro-Hyp)5-CII(551-552Hyp-564)-(Gly-Pro-Hyp)2]3LAhx in a volume of 50 μL/well and at a concentration of 5 μg/mL. Wells coated with native rat CII (rCII; 10 μg/mL) were used as a positive control, while negative controls included wells coated with native rat type I collagen (rCI; 10 μg/mL) and wells coated with phosphate-buffered saline (PBS; pH 7.4).
(§3) After coating, the plates were incubated for at least one hour in a humid chamber at 4° C. After incubation, the plates were washed three times with PBS using an automatic microtiter plate-washing device (Skan Washer 300, Skatron instruments) and incubated with 50 μL/well of bovine serum albumin (BSA; Sigma, St. Louis, Mo.; 10 mg/mL in PBS) for two hours at 20° C. The wells were washed five times with PBS using ELISA washing equipment (Skatron, Norway) and incubated with a monoclonal anti-CII antibody (50 μL/well in titrated concentrations) for two hours at 20° C. After this two hour incubation, the plates were washed with PBS-Tween and incubated with a secondary enzyme-labeled antibody for two hours at 20° C. For detection of mouse antibodies, peroxidase labeled goat anti-mouse IgG (H+L) (Jackson ImmunoResearch Laboratories, Inc., USA) were used. For detection of rat antibodies, peroxidase labeled goat anti-rat IgG (H+L) (Jackson ImmunoResearch Laboratories, Inc. USA) were used.
(§4) After washing the wells with PBS, the assay was developed using the ABTS system (Boehringer-Mannheim, Mannheim, Germany), and the absorbance levels determined at 405 nm (ELISA reader, Titertek). Titers and concentrations of the monoclonal antibodies were calculated using limiting dilution (ELISA software: HyperELISA 3.0).

[5] = test system: monoclonal anti-CII antibody M2 84; assay: as above; assay type: binding; conditions: monoclonal antibody M2 84, Mouse; coated wells
Source text: as §2, §3, §4

[6] = test system: monoclonal anti-CII antibody M2 139; assay: as above; assay type: binding; conditions: monoclonal antibody M2 139, Mouse; coated wells
Source text: as §2, §3, §4

[7] = test system: monoclonal anti-CII antibody M2 88; assay: as above; assay type: binding; conditions: monoclonal antibody M2 88, Mouse; coated wells
Source text: as §2, §3, §4

[8] = test system: monoclonal anti-CII antibody 126.30; assay: as above; assay type: binding; conditions: monoclonal antibody 126.30, Rat; coated wells
Source text: as §2, §3, §4

[9] = test system: monoclonal anti-CII antibody EB63; assay: as above; assay type: binding; conditions: monoclonal antibody EB63, Mouse; coated wells
Source text: as §2, §3, §4

[10] = test system: monoclonal anti-CII antibody 126.35; assay: as above; assay type: binding; conditions: monoclonal antibody 126.35, Rat; coated wells
Source text: as §2, §3, §4

[11] = test system: monoclonal anti-CII antibody 145.322; assay: as above; assay type: binding; conditions: monoclonal antibody 145.322, Rat; coated wells
Source text: as §2, §3, §4

[12] = test system: monoclonal anti-CII antibody M2 87; assay: as above; assay type: binding; conditions: monoclonal antibody M2 87, Mouse; coated wells
Source text: as §2, §3, §4

[13] = test system: monoclonal anti-CII antibody 125.5; assay: as above; assay type: binding; conditions: monoclonal antibody 125.5, Rat; coated wells
Source text: as §2, §3, §4

[14] = test system: monoclonal anti-CII antibody M2 76; assay: as above; assay type: binding; conditions: monoclonal antibody M2 76, Mouse; coated wells
Source text: as §2, §3, §4

[15] = test system: monoclonal anti-CII antibody EB2; assay: as above; assay type: binding; conditions: monoclonal antibody EB2, Mouse; coated wells
Source text: as §2, §3, §4

[16] = test system: monoclonal anti-CII antibody 146.50; assay: as above; assay type: binding; conditions: monoclonal antibody 146.50, Rat; coated wells
Source text: as §2, §3, §4

heat denatured CII: CII polypeptide heated to greater than 50° C. for two hours prior to coating
binding of C1 mAb / M2.139 mAb, titration curves (C1 mAb and M2.139 mAb): does not bind

whole CII protein: whole type II collagen protein
stimulation of hybridoma (IL-2, CTLL assay) (HCQ.10 hybridoma): respond | stimulation of hybridoma (IL-2, CTLL assay) (HCQ.4 hybridoma): respond

GEPGIAGFKGEQGPK [CII(256-270), non-glycosylated, unlinked polypeptide]
stimulation of T cell hybridoma cells (IL-2 production) ([1]; non-fixed APC): potent stimulators | stimulation of T cell hybridoma cells (IL-2 production) ([1]; presented by formalin-fixed spleen cells (FIGS. 25–26)): stimulated

[(Gly-Pro-Hyp)5-CII(259-274)-(Gly-Pro-Hyp)2]3LAhx [linked polypeptide composition]
development of arthritis ([2]; adult C3H.Q mice, 100 μg intradermally in incomplete Freund's adjuvant (FIG. 6)): abrogated development of arthritis | antibody response ([2]; five weeks after treating the mice with rat CII): lower | stimulation of T cells (IL-2 content, CTLL assay, CPM) [3]: stimulated T cells

tetanus toxoid [TT]
IL-2 response of CD4+ T cells (percent of IL-2-producing CD4+ T cells) (CD4+ T cells; patient RA 1): 0.38% | IL-2 response of CD4+ T cells (percent of IL-2-producing CD4+ T cells) (CD4+ T cells; patient RA 2): 0.61% | IL-2 response of CD4+ T cells (percent of IL-2-producing CD4+ T cells) (CD4+ T cells; patient RA 3): 0.20%

rCII: native rat type II collagen, positive control
end point titer value in ng antibody/mL [4]: 10 ng antibody/mL | end point titer value in ng antibody/mL [5]: 10 ng antibody/mL | end point titer value in ng antibody/mL [6]: 10 ng antibody/mL | end point titer value in ng antibody/mL [7]: 10 ng antibody/mL | end point titer value in ng antibody/mL [8]: 10 ng antibody/mL | end point titer value in ng antibody/mL [9]: 100 ng antibody/mL | end point titer value in ng antibody/mL [10]: 10 ng antibody/mL | end point titer value in ng antibody/mL [11]: 100 ng antibody/mL | end point titer value in ng antibody/mL [12]: 10 ng antibody/mL | end point titer value in ng antibody/mL [13]: 10 ng antibody/mL | end point titer value in ng antibody/mL [14]: 10 ng antibody/mL | end point titer value in ng antibody/mL [15]: <10 ng antibody/mL | end point titer value in ng antibody/mL [16]: 100 ng antibody/mL | stimulation of T cells (IL-2 content, CTLL assay, CPM) [3]: did not
